In EP1059033A1, “INDUSTRIAL ANTIBACTERIAL/ANTIFUNGAL AGENTS, ALGICIDES AND ANTI-BIOLOGICAL ADHESION AGENTS CONTAINING BENZYLAMINES” (Nissan Chemical Industries, Ltd., priority 1998, dated 1999):
Converted amounts (≈) assume the structure as drawn. Read-outs that look alike come from different tables or passages of the source.

Tests used:
Format in all cases: cell-based
[1] = tested on: freshwater green alga (Selenastrum capricornutum); assay: Inhibition of propagation of freshwater green alga (Example 4); conditions: after 72 hours, cell number vs non-treated lot; for inhibition at 0.05 ppm: 50ppb, read-out: Propagation inhibiting rate(%) 50ppb; for inhibition at 0.5 ppm: 500ppb, read-out: Propagation inhibiting rate(%) 500ppb
Procedure: A predetermined amount of each of the compounds of the invention was dissolved in a culture medium containing 10^5 /ml of a freshwater green alga (Selenastrum capricornutum) at a logarithmic growth phase to prepare samples having a concentration of the compound of the invention in the medium of 500 ppb and 50ppb respectively. The samples were stationary cultured at 23±1 °C for […] under continuous illumination.
After 72 hours, the number of cells was measured using a hemacytometer to obtain propagation rate. The propagation inhibiting rate was calculated from comparison with the non-treated lot.

[2] = tested on: Trichophyton mentagrophytes; conditions: 72 h, 100 ppm
Procedure: 31.3 ml of Trichophyton mentagrophytes to be tested was added to 125 ml of a potato dextrose agar culture medium (Nissui Seiyaku Co.). The medium was stirred not to foam the solutions, poured into plates uniformly and solidified.
Thereafter, predetermined amounts of the compounds of the invention were weighted and diluted with acetone to predetermined concentrations.
Paper disks were impregnated with samples containing predetermined amounts of the compounds of the invention, laid on a filter, dried with air and placed on a plate containing test microbe at equal intervals.
Trichophyton mentagrophytes was cultured at 28 °C for 3 days in a thermostatic chamber and the diameter of each inhibiting zone was measured to evaluate the activity of each compound. Symbols in the table mean the followings; • A: Trichophyton mentagrophytes, • ++: strongly inhibiting zone (equal to or more than 21 mm) is observed, • +: inhibiting zone (10 to 20 mm) is observed, • -: no inhibiting zone is observed.

[3] = tested on: Trichophyton mentagrophytes; assay: Agar dilution MIC (Example 2); conditions: 168 h, agar plate, 27 °C, 7 days
Procedure: (§1) Series of diluted samples (20000, 10000, 5000, 2500, 2000, 1250, 625, 313, 156, 78, 39, 20, 10, 5, 2.5, 1.25 mg/l) of the compounds of the invention were prepared using dimethylsulfoxide. A sensitive culture medium-N (Nissui Seiyaku Co.) was used for bacteria and a potato dextrose agar culture medium (Nissui Seiyaku Co.) was used for fungi. 0.5 ml of each sample was added to and mixed with 9.5 ml of the culture medium, poured into a Petri dish and solidified to obtain a plate. As a result, the concentration of the compounds of the invention in the agar culture medium were 1000, 500, 250, 125, 100, 62.5, 31.3, 15.6, 7.8, 3.9, 2.0, 1.0, 0.5, 0.25, 0.125, 0.062 mg/l. The bacterium inoculated were cultured in a bouillon for the assay of sensitivity (Nissui Seiyaku Co.) at 37 °C for 20 hours, and the fungi were cultured in the potato dextrose agar culture medium (Nissui Seiyaku Co.) for 10 days and then a 10^6 CFU/ml suspension was prepared from each of them. A test bacteria or fungi suspension was streaked on an agar plate containing the compound of the present invention with platinum wire loop, and the agar plate was cultured at 37±1 °C for 18 to 20 hours for bacteria or at 27 °C for 7 days for fungi. A concentration at which no growth was seen was taken as minimum inhibitory concentration [MIC(mg/l)]. Symbols in the table mean the followings; • A: Bacillus subtilis, • B: Trichophyton mentagrophytes, • C: Rhodotorula mucilaginosa.

[4] = tested on: Corynebacterium aquaticum; assay: Agar dilution MIC (Example 3); conditions: Leifsonia aquatica, agar plate, 37±1 °C, 18 to 20 hours
Procedure: (§2) Series of diluted samples (20000, 10000, 5000, 2500, 1250, 625, 313, 156, 78, 39 mg/l) of the compounds of the invention were prepared using dimethylsulfoxide. A sensitive culture medium-N (Nissui Seiyaku Co.) was used for bacteria and a potato dextrose agar culture medium (Nissui Seiyaku Co.) was used for fungi. 0.5 ml of each sample was added to and mixed with 9.5 ml of the culture medium, poured into a Petri dish and solidified to obtain a plate. As a result, the concentration of the compounds of the invention in the agar culture medium were 1000, 500, 250, 125, 62.5, 31.3, 15.6, 7.8, 3.9, 2.0 mg/l. The bacterium inoculated were cultured in a bouillon for the assay of sensitivity (Nissui Seiyaku Co.) at 37 °C for 20 hours, and the fungi were cultured in the potato dextrose agar culture medium (Nissui Seiyaku Co.) for 10 days and then a 10^6 CFU/ml suspension was prepared from each of them. A test bacteria or fungi suspension was streaked on an agar plate containing the compound of the present invention with platinum wire loop, and the agar plate was cultured at 37±1 °C for 18 to 20 hours for bacteria or at 27 °C for 7 days for fungi. A concentration at which no growth was seen was taken as minimum inhibitory concentration (MIC). Symbols in the tables mean the followings; • A: Bacillus subtilis, • B: Trichophyton mentagrophytes, • C: Staphylococcus aureus, • D: Aspergillus niger, • E: Penicillium funiculosum, • F: Candida albicans, • G: Micrococcus luteus, • H: Corynebacterium aquaticum, • I: Chaetomium globosum, • J: Fusarium moniliforme, • K: Saccharomyces cerevisiae, • L: Rhodotorula rubra, • M: Cladosporium cladosporioides, • N: Alternaria alternata.

Chaetomium globosum = assay: Agar dilution MIC (Example 3); conditions: 168 h, agar plate, 27 °C, 7 days
Procedure: as §2

Saccharomyces cerevisiae = assay: Agar dilution MIC (Example 3); conditions: 168 h, agar plate, 27 °C, 7 days
Procedure: as §2

[5] = tested on: freshwater blue-green alga (Microcystis aeruginosa); assay: Inhibition of propagation of freshwater algae (Example 6); conditions: 500ppb
Procedure: (§3) A predetermined amount each of the compounds of the invention was dissolved in a culture medium containing 10^5 /ml of a freshwater alga at a logarithmic growth phase to prepare samples having a concentration of the compound of the invention in the medium of 500 ppb and 50 ppb respectively. A shaking culture at 100 rpm was performed for […] under continuous illumination at 20±2 °C for freshwater diatom and at 23±2 °C for other algae.
(§4) After 72 hours and 168 hours, the […] of cells was measured using a hemacytometer to obtain propagation rate. The propagation inhibiting rate was calculated from comparison with the non-treated lot. Symbols in the tables mean the followings; • A: freshwater green alga (Chlorella pyrenoidosa), • B: freshwater blue-green alga (Microcystis aeruginosa), • C: freshwater diatom (Diatoma elongatum), • D: freshwater green alga (Scenedesmus pannonicus).

[6] = tested on: freshwater green alga (Scenedesmus pannonicus); assay: as above; conditions: Desmodesmus pannonicus, 500ppb
Procedure: as §3, §4

[7] = tested on: seawater diatom [Nitzschia closterium]; assay: Inhibition of propagation of seawater diatom (Example 5); conditions: Cylindrotheca closterium, 72 h, read-out: Propagation inhibiting rate(%) 500ppb
Procedure: A predetermined amount of each of the compounds of the invention was dissolved in culture media containing 10^5 /ml of a seawater diatom [Nitzschia closterium] at a logarithmic growth phase to prepare samples having a concentration of the compound in the medium of 500 ppb. The samples were stationary cultured at 22±1 °C for […] under continuous illumination.
After 72 hours, cells were collected by centrifugation and disrupted by addition of methanol to extract chlorophyll, and the amount of chlorophyll was measured from absorbance using a spectrophotometer to obtain propagation rate. The propagation inhibiting rate was calculated from comparison with the non-treated lot.

Rhodotorula mucilaginosa = assay: Agar dilution MIC (Example 2); conditions: 168 h, agar plate, 27 °C, 7 days
Procedure: as §1

[8] = tested on: freshwater diatom (Diatoma elongatum); assay: Inhibition of propagation of freshwater algae (Example 6); conditions: Diatoma tenuis; for inhibition at 0.05 ppm: 50ppb; for inhibition at 0.5 ppm: 500ppb
Procedure: as §3, §4

[9] = 72hr, read-out: Propagation inhibiting rate(%) 500ppb 72hr
[10] = 168hr, read-out: Propagation inhibiting rate(%) 500ppb 168hr
[11] = 168hr, read-out: Propagation inhibiting rate (%) 500ppb 168hr

Compound	MIC [3] [mg/L]	inhibition at 0.05 ppm [1] [%]	inhibition at 0.5 ppm [1] [%]	other results
CN(Cc1ccc(C(C)(C)C)cc1)Cc1cc(Cl)cc(Cl)c1 [Compound 1]	–	79	94	Judgment (Target bacteria: A) [2]: ++ (strongly inhibiting zone (equal to or more than 21 mm) is observed)
CN(Cc1ccc(C(C)(C)C)cc1)Cc1cccc(C(F)(F)F)c1 [Compound 12]	< 1	–	90	MIC (Chaetomium globosum): 125 mg/L (≈ 373 µM); MIC (Saccharomyces cerevisiae): 125 mg/L (≈ 373 µM)
Clc1ccc(CNCc2c(Cl)cccc2Cl)cc1Cl [Compound 15]	3.9 (≈ 11.6 µM)	–	94	inhibition at 0.5 ppm [5, 9]: 92%; inhibition at 0.5 ppm [5, 10]: 100%; inhibition at 0.5 ppm ([6]; 72hr, read-out: Propagation inhibiting rate (%) 500ppb 72hr): 95%; inhibition at 0.5 ppm [6, 11]: 98%
CN(Cc1ccc(C(C)(C)C)cc1)Cc1c(F)c(F)c(F)c(F)c1F [Compound 21]	7.8 (≈ 21.8 µM)	–	–	–
CN(Cc1ccc(Cl)c(Cl)c1)C1CCc2ccccc21 (centres unmarked) [Compound 25]	15.6 (≈ 50.9 µM)	–	95	–
CN(Cc1ccc(C(C)(C)C)cc1)C1CCOc2ccccc21 (centres unmarked) [Compound 26]	1 (≈ 3.23 µM)	–	–	–
CC(C)c1ccc(CN(C)Cc2cccc3ccccc23)cc1 [Compound 29]	–	95	96	inhibition at 0.5 ppm [7]: 76%; Judgment (Target bacteria: A) [2]: ++ (strongly inhibiting zone (equal to or more than 21 mm) is observed)
CN(Cc1ccc(Cl)cc1)Cc1cccc2ccccc12 [Compound 31]	–	88	95	inhibition at 0.5 ppm [5, 9]: 90%; inhibition at 0.5 ppm [5, 10]: 100%; inhibition at 0.05 ppm ([8]; 72hr, read-out: Propagation inhibiting rate(%) 50ppb 72hr): 61%; inhibition at 0.05 ppm ([8]; 168hr, read-out: Propagation inhibiting rate(%) 50ppb 168hr): 87%; inhibition at 0.5 ppm [8, 9]: 81%; inhibition at 0.5 ppm [8, 10]: 95%; inhibition at 0.5 ppm [6, 11]: 79%; Judgment (Target bacteria: A) [2]: + (inhibiting zone (10 to 20 mm) is observed)
CN(Cc1ccc(C(C)(C)CCl)cc1)Cc1cccc2ccccc12 [Compound 35]	7.8 (≈ 22.2 µM)	75	94	MIC (Rhodotorula mucilaginosa): 7.8 mg/L (≈ 22.2 µM)
CCCCCCc1ccc(CN(C)Cc2cccc3ccccc23)cc1 [Compound 36]	2 (≈ 5.79 µM)	–	83	–
CN(Cc1ccc(Cl)c(Cl)c1)Cc1cccc2ccccc12 [Compound 37]	0.5 (≈ 1.51 µM)	–	69	–
COc1ccc(CN(C)Cc2cccc3ccccc23)cc1 [Compound 38]	7.8 (≈ 26.8 µM)	–	75	–
Cc1ccc(CN(C)Cc2cccc3ccccc23)cc1 [Compound 39]	3.9 (≈ 14.2 µM)	–	90	–
CN(Cc1cc(Cl)cc(Cl)c1)Cc1cccc2ccccc12 [Compound 40]	–	61	61	–
Cc1ccc(CN(C)Cc2cccc3ccccc23)cc1C [Compound 41]	7.8 (≈ 27 µM)	66	97	–
CN(Cc1ccc(F)c(F)c1)Cc1cccc2ccccc12 [Compound 45]	15.6 (≈ 52.5 µM)	–	87	–
CN(Cc1ccc(C#N)cc1)Cc1cccc2ccccc12 [Compound 46]	15.6 (≈ 54.5 µM)	–	96	–
CC(C)Oc1ccc(CN(C)Cc2cccc3ccccc23)cc1 [Compound 47]	7.8 (≈ 24.4 µM)	63	71	–
CN(Cc1c(Cl)cccc1Cl)Cc1cccc2ccccc12 [Compound 48]	–	–	77	inhibition at 0.5 ppm [7]: 77%
Cc1cccc(CN(C)Cc2cccc3ccccc23)c1 [Compound 50]	15.6 (≈ 56.6 µM)	–	93	–
CCCOc1ccc(CN(C)Cc2cccc3ccccc23)cc1 [Compound 51]	15.6 (≈ 48.8 µM)	–	–	–

Second part, led by results:

MIC [3] [mg/L]	Compound	inhibition at 0.05 ppm [1] [%]	inhibition at 0.5 ppm [1] [%]	other results
0.25 (≈ 0.828 µM)	CN(Cc1ccc(C(C)(C)C)cc1)Cc1cccc(Cl)c1 [Compound 10]	87	95	Judgment (Target bacteria: A) [2]: ++ (strongly inhibiting zone (equal to or more than 21 mm) is observed)
< 1	Cc1cccc(CN(C)Cc2ccc(C(C)(C)C)cc2)c1 [Compound 11]	70	93	MIC [4]: 63 mg/L (≈ 224 µM); MIC (Chaetomium globosum): 63 mg/L (≈ 224 µM)
< 1	COc1cccc(CN(C)Cc2ccc(C(C)(C)C)cc2)c1 [Compound 13]	–	92	MIC [4]: 63 mg/L (≈ 212 µM)
1 (≈ 3.31 µM)	CN(Cc1ccc(C(C)(C)C)cc1)Cc1ccccc1Cl [Compound 17]	–	83	–
1 (≈ 2.97 µM)	CN(Cc1ccc(C(C)(C)C)cc1)Cc1ccc(Cl)cc1Cl [Compound 18]	–	–	–
1 (≈ 2.97 µM)	CN(Cc1ccc(C(C)(C)C)cc1)Cc1cc(Cl)ccc1Cl [Compound 22]	–	–	–
0.125 (≈ 0.372 µM)	CN(Cc1ccc(C(C)(C)C)cc1)Cc1cccc(Cl)c1Cl [Compound 24]	–	85	–
< 0.062	CN(Cc1ccc(C(C)(C)C)cc1)Cc1cccc2ccccc12 [Compound 30]	–	94	MIC (Rhodotorula mucilaginosa): 15.6 mg/L (≈ 49.1 µM); Judgment (Target bacteria: A) [2]: ++ (strongly inhibiting zone (equal to or more than 21 mm) is observed)
1 (≈ 2.7 µM)	CN(Cc1ccc(C(C)(C)C)cc1)Cc1c(Cl)ccc(Cl)c1Cl [Compound 33]	–	–	–
